Test [1] has as its system Mus musculus. As to the kind of experiment: Reduction in hypoxic stress in ip dosed CF-1 mouse. It counts as functional. The note with it: CF-1, ip.
In test [2] the test system is Mus musculus. As to the kind of experiment: Anticonvulsant activity in ip dosed CF-1 mouse assessed as reduction of strychnine-induced response. The class given is functional. The note with it: CF-1, ip.
Test [3] has as its system Mus musculus. As to the kind of experiment: Inhibition of nicotine-induced response in ip dosed CF-1 mouse. The class given is functional. Particulars: CF-1, ip.
Test [4] relates to Mus musculus. As to the kind of experiment: Anticonvulsant activity in ip dosed CF-1 mouse assessed as reduction of pentylenetetrazole-induced response. The class given is functional. The note with it: CF-1, ip.
Test [5] concerns Mus musculus. Nature of the test: Reduction in hypoxic stress in CF-1 mouse at 100 mg/kg, ip. The class given is functional, organism-based. The arrangement: dose 100 mg/kg.
Test [6] relates to Mus musculus. As to the kind of experiment: Anticonvulsant activity in CF-1 mouse assessed as reduction of pentylenetetrazole-induced response at 100 mg/kg, ip. It counts as functional, organism-based. Further details: dose 100 mg/kg.
Test [7] concerns Mus musculus. As to the kind of experiment: Inhibition of nicotine-induced response in CF-1 mouse at 100 mg/kg, ip. The class given is functional, organism-based. Further details: dose 100 mg/kg.
Test [8] has as its system Mus musculus. Nature of the test: Anticonvulsant activity in CF-1 mouse assessed as reduction of strychnine-induced response at 100 mg/kg, ip. The class given is functional, organism-based. Further details: dose 100 mg/kg.

Calls of active or inactive are those of the source. The calls are words filed in the database; no cut-off is given here.

Take `Cc1nnc2n1-c1ccc(Cl)cc1N(c1ccccc1)C(=O)C2`: the ED50 in the test on Mus musculus [1] was 60 mg/kg; with Mus musculus [2], 28 mg/kg; in the test on Mus musculus [3], 5 mg/kg; in the test with Mus musculus [4], 7 mg/kg.

As for `O=C1Cc2nnc(CCl)n2-c2ccc(Cl)cc2N1c1ccccc1`, the result with Mus musculus [5], in the test on Mus musculus [6] and in the test on Mus musculus [8] was inactive. Moreover, the inhibition entry in the test on Mus musculus [7] was “inactive”.

With `CNC1=Nc2ccc(Cl)cc2C(c2ccccc2)=[N+]([O-])C1` [CHLORDIAZEPOXIDE], the ED50 worked out at 10.5 mg/kg in the test on Mus musculus [1], 13 mg/kg with Mus musculus [2], 1 mg/kg in the test with Mus musculus [3] and 2.6 mg/kg with Mus musculus [4].

As for `CN(C)Cc1nnc2n1-c1ccc(Cl)cc1N(c1ccccc1)C(=O)C2`, the ED50 in the test on Mus musculus [3] is 89 mg/kg; with Mus musculus [4], 25 mg/kg.

The term ED50 denotes the midpoint of the dose-response relation.

(Values after ChEMBL document CHEMBL3272002, “Central nervous system depressants. 13. s-Triazolo-1,5-benzodiazepin-5-ones” (1976).)
